Results as given in PMC13266984 (Journal of medicinal chemistry, 2026).

Target: T1, Human ALDH3A1 (Homo sapiens, UniProt P30838)
T1 sequence (P30838 1-453): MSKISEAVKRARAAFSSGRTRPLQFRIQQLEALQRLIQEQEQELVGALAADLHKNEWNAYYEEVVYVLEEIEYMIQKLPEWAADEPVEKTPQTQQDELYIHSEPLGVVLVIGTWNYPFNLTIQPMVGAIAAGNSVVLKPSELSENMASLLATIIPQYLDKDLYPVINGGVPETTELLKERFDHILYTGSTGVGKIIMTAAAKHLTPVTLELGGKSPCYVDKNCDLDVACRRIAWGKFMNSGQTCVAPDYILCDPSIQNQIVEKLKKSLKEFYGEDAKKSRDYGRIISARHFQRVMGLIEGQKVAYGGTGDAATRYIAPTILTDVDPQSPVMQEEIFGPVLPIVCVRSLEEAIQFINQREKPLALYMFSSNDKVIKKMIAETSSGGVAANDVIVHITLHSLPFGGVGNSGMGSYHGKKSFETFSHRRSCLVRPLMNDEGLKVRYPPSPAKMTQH
Assay: ALDH3A1 biochemical assay (benzaldehyde/NADP+, diaphorase-resazurin readout, 1,536-well)
Conditions: for CC-v2: curve class

SMILES | AC50 | Efficacy (Table S1, primary screen) | CC-v2 (Table S1, primary screen) | Efficacy (Table S2, in-house analogs) | CC-v2 (Table S2, in-house analogs) | Efficacy (ALDH3A1 biochemical) | IC50 (ALDH3A1 biochemical IC50, text) | LLE (Table S7, pAC50 − cLogP)
Cc1cc(C)c(C)c([S+](=O)([O-])NCCC(=O)N2CCc3[nH]c(=O)c(C#N)cc3C2)c1C [NCGC00527311-01] | 28.2 µM | -52.11 | -2.2 | – | – | – | – | –
CC(=O)Nc1cccc(-c2cc(C(=O)NCc3cnn(C)c3)c3c(c2)N(C)CCO3)c1 [NCGC00417085-01] | 28.2 µM | – | – | -77.64 | -2.2 | – | – | –
COc1cccc(N2CCN(c3nc(C(=O)NCc4ccccc4F)cs3)CC2)c1 [NCGC00430688-01] | 2.82 µM | – | – | -45.69 | -1.2 | – | – | –
O=C(NC1CCCC1)c1csc(N2CCN(c3cccc(Cl)c3)CC2)n1 [NCGC00430704-01] | 15.8 µM | – | – | -42.05 | -2.4 | – | – | –
CNC(=O)c1cccc(-c2cnc3[nH]cc(CC(=O)Nc4ccccc4C)c3c2)c1 [NCGC00412345-01] | 5.62 µM | – | – | -73.33 | -2.4 | – | – | –
Cc1cccc(CNC(=O)c2csc(N3CCN(c4ccccc4)CC3)n2)c1 [NCGC00430642-01] | 1.41 µM | – | – | -74.85 | -1.2 | 74% | 1.41 µM | 2.143
CC1(COCC2CC2)COc2ccc(C(=O)Nc3cccc([S+](C)(=O)[O-])c3)cc2N1 (stereo not drawn) [NCGC00416184-01] | 35.5 µM | -42.40 | -2.4 | – | – | – | – | –
O=C(CCc1cc2n(n1)CCCNC2)Nc1ccc2c(c1)OCCO2 [NCGC00441819-01] | 15.8 µM | -25.02 | -2.4 | – | – | – | – | –
Cc1nn(-c2ccc(C(C)C)cc2)c(C)c1[C@@H]1C=C[C@@H](NCc2ccc(F)cc2)C1 [NCGC00401594-01] | 12.6 µM | – | – | -91.30 | -2.2 | – | – | –
Cc1cc(Cl)ccc1-n1nc(C)c([C@@H]2C=C[C@@H](NC(=O)c3ccc(N(C)C)cc3)C2)c1C [NCGC00394621-01] | 3.98 µM | – | – | -97.74 | -1.1 | – | – | –
C[S+](=O)([O-])c1ccc(N2CCN(CC3(O)CNCCOC3)CC2)c(F)c1 (stereo not drawn) [NCGC00435271-01] | 20 µM | -66.49 | -3 | – | – | – | – | –
COCC(=O)Nc1ncncc1-c1noc([C@@H]2CCCN2Cc2cc(OC)c(OC)c(OC)c2)n1 [NCGC00394846-01] | 15.8 µM | -70.18 | -2.2 | – | – | – | – | –
COc1ccc(NC(=O)N[C@H]2C[C@@H](C(=O)N[C@@H](Cc3cccs3)C(N)=O)N(C(=O)CSC)C2)cc1 [NCGC00398253-01] | 14.1 µM | -63.09 | -2.2 | – | – | – | – | –
O=C(NCc1ccncc1)c1csc(N2CCN(c3ccccc3F)CC2)n1 [NCGC00430720-01] | 15.8 µM | – | – | -57.30 | -2.2 | – | – | –
CNCc1cn(C[C@H]2O[C@@H](CC(=O)NCc3ccc(F)cc3)[C@H](O)[C@@H]2O)nn1 [NCGC00400077-01] | 39.8 µM | -39.06 | -2.2 | – | – | – | – | –
COc1cccc(N2CCN(c3nc(C(=O)NCc4cccc(C)c4)cs3)CC2)c1 [Compound 2] | 2.51 µM | – | – | -72.54 | -1.2 | – | – | –
COc1ccc(CCC(=O)N2CCc3[nH]c(=O)c(C#N)cc3C2)c(OC)c1OC [NCGC00527314-01] | 35.5 µM | -47.14 | -2.4 | – | – | – | – | –
COc1ccc(N2CCN(c3nc(C(=O)NCc4ccc(C)cc4)cs3)CC2)cc1 [NCGC00430668-01] | 3.98 µM | – | – | -57.20 | -1.2 | – | – | –
Cc1nn(Cc2ccccc2)c(C)c1[C@@H]1C=C[C@@H](NC(=O)Nc2ccccc2)C1 [NCGC00400191-01] | 22.4 µM | – | – | -83.17 | -2.2 | – | – | –
COc1ccc(N2CCN(c3nc(C(=O)NC4CC4)cs3)CC2)cc1 [NCGC00430672-01] | 0.11 µM | – | – | -32.51 | -1.2 | – | – | –
O=C(NCc1ccc(F)cc1)c1csc(N2CCN(c3ccccc3F)CC2)n1 [NCGC00430726-01] | 2 µM | – | – | -64.54 | -1.2 | – | – | –
COc1ccc(N2CCN(c3nc(C(=O)NCC4CCCCC4)cs3)CC2)cc1 [NCGC00430670-01] | 0.25 µM | – | – | -27.44 | -1.4 | – | – | –
O=C(NCc1ccc(Cl)cc1)c1cc2n(n1)CC(c1ccc3c(c1)OCO3)OC2 (stereo not drawn) [NCGC00450299-01] | 10 µM | -21.09 | -1.4 | – | – | – | – | –
COCc1noc(-c2ccc(NC[C@H]3CCc4ccccc4O3)nc2)n1 [NCGC00428876-01] | 31.6 µM | -39.16 | -2.2 | – | – | – | – | –

SMILES | AC50 | Efficacy (Table S1, primary screen) | CC-v2 (Table S1, primary screen) | Efficacy (Table S2, in-house analogs) | CC-v2 (Table S2, in-house analogs) | Efficacy (ALDH3A1 biochemical) | IC50 (ALDH3A1 biochemical IC50, text) | LLE (Table S7, pAC50 − cLogP)
Cc1nn(-c2ccc(C(C)C)cc2)c(C)c1[C@@H]1C=C[C@@H](NCc2cccc(C#N)c2)C1 [NCGC00421409-01] | 10 µM | – | – | -39.09 | -1.2 | – | – | –
COc1cccc(N2CCN(c3nc(C(=O)NCc4ccncc4)cs3)CC2)c1 [NCGC00430686-01] | 12.6 µM | – | – | -75.42 | -2.2 | – | – | –
COC(=O)c1ccc2nc(CO[C@H]3CN(C4CCOCC4)C[C@H]3F)[nH]c2c1 [NCGC00392980-01] | 0.18 µM | – | – | -21.56 | -1.4 | – | – | –
CN(C)CC1(O)CCN(C(=O)Cn2cc(C(=O)C3CC3)c3ccccc32)C1 (stereo not drawn) [NCGC00438461-01] | 35.5 µM | -41.61 | -2.4 | – | – | – | – | –
COC(=O)c1ccc2nc(CO[C@H]3CN(C(C)=O)C[C@H]3F)[nH]c2c1 [NCGC00392964-01] | 0.32 µM | – | – | -32.94 | -1.2 | – | – | –
Cc1cc(CNC(=O)c2cc(-c3cnn(C)c3)cc3c2OCCN3C)no1 [NCGC00417081-01] | 15.8 µM | – | – | -39.10 | -2.2 | – | – | –
COCCNC(=O)c1ccc2c(c1)N(C)C(CC(=O)NCC(C)C)CO2 (stereo not drawn) [NCGC00429361-01] | 28.2 µM | -36.95 | -3 | – | – | – | – | –
COC(=O)c1ccc2nc(CO[C@H]3CN(Cc4ccc5ccccc5n4)C[C@H]3F)[nH]c2c1 [NCGC00391159-01] | 0.79 µM | – | – | -109.85 | -1.1 | – | – | –
O=C(NCc1cccs1)c1csc(N2CCN(c3ccc(F)cc3)CC2)n1 [NCGC00430736-01] | 7.08 µM | – | – | -65.35 | -1.2 | – | – | –
CC(O)c1ccc(CCNC(=O)C(=O)Nc2cc3c4c(c2)CC(=O)N4CCC3)s1 (stereo not drawn) [NCGC00529385-01] | 11.2 µM | -31.52 | -2.2 | – | – | – | – | –
O=C(NCc1nc(-c2ccccc2)no1)C1CCN(c2cc(-n3cncn3)ncn2)CC1 [NCGC00526793-01] | 35.5 µM | -44.11 | -2.2 | – | – | – | – | –
COCc1nc(N2CCC(Cn3cccn3)CC2)cc([C@H]2C[C@H](N)C2)n1 [NCGC00422389-01] | 15.8 µM | -81.78 | -3 | – | – | – | – | –
COc1cc(F)ccc1-c1cc(C(=O)NCCC(N)=O)c2c(c1)N(C)CCO2 [NCGC00417040-01] | 20 µM | – | – | -27.04 | -2.4 | – | – | –
NC(=O)[C@H](Cc1ccc(O)cc1)NC(=O)[C@@]1(O)C[C@@H](O)[C@H](O)[C@@H](NC(=O)c2ccc(F)c(Cl)c2)C1 [NCGC00398197-01] | 35.5 µM | -17.95 | -2.4 | – | – | – | – | –
COc1ccc(-n2nc(C)c([C@@H]3C=C[C@@H](NCc4ccc(N(C)C)cc4)C3)c2C)cc1 [NCGC00394616-01] | 28.2 µM | – | – | -105.83 | -2.1 | – | – | –
COc1cccc(N2CCN(c3nc(C(=O)NCc4ccco4)cs3)CC2)c1 [Compound 3] | 12.6 µM | – | – | -54.71 | -2.2 | – | – | –
Cc1nn(CCC#N)c(C)c1[C@@H]1C=C[C@@H](NC(=O)Nc2ccc(Cl)cc2)C1 [NCGC00399959-01] | 28.2 µM | – | – | -62.15 | -2.2 | – | – | –
COc1ccc(-n2nc(C)c([C@@H]3C=C[C@@H](NCc4ccccc4)C3)c2C)cc1 [NCGC00391544-01] | 25.1 µM | – | – | -31.39 | -2.4 | – | – | –
Cc1nn(-c2ccc(C(F)(F)F)cc2)c(C)c1[C@@H]1C=C[C@@H](NCc2ccc(N(C)C)cc2)C1 [NCGC00392637-01] | 12.6 µM | – | – | -37.26 | -2.2 | – | – | –
C[S+](=O)([O-])c1ccc(CN2C[C@H](O)C[C@H]2c2nc(C3CC3)no2)cc1 [NCGC00396353-01] | 35.5 µM | -44.61 | -2.2 | – | – | – | – | –
COC(=O)c1ccc2nc(CO[C@H]3CN(Cc4ccc(C(F)(F)F)cc4)C[C@H]3F)[nH]c2c1 [NCGC00392986-01] | 28.2 µM | – | – | -62.94 | -2.2 | – | – | –
C=CCOc1c(OC)ccc2c1CN(Cc1ccccc1)C(=O)CCN2CC(O)COc1ccc(OC)cc1 (stereo not drawn) [NCGC00501442-01] | 8.91 µM | -29.51 | -1.4 | – | – | – | – | –
CCOc1ccc(C(=O)NC2CCN(c3cc(-c4ccc(OC)cc4)n[nH]3)C2)cc1OCC (stereo not drawn) [NCGC00438182-01] | 2.51 µM | -29.34 | -1.4 | – | – | – | – | –
CCn1nc(C)c(CNC(=O)c2cc(COc3ccc4ncccc4c3)on2)c1C [NCGC00426725-01] | 28.2 µM | -57.51 | -2.2 | – | – | – | – | –
